The values that follow come from patent US10183971B2, “SAA-domain-specific antibodies and peptide antagonists and use thereof to treat inflammatory diseases” (The Feinstein Institute For Medical Research, priority 2013, dated 2019).

“Also recorded” adds a separate entry of the source.

For one assay, the system named is HMGB1 release. Put plainly: HMGB1 release in vitro by inflammatory mediators (data not shown). It counts as cell-based.
The next assay relates to SAA. Put plainly: SAA-induced HMGB1 release in macrophages (Western blotting). It counts as cell-based. The settings on record: in vitro. The method, then:
FIG. 5A-5C. Epitope mapping of SAA-specific antibodies using a peptide library. A, Sequence of synthetic SAA peptides (SEQ ID NO:19). […] Macrophages were stimulated with SAA in the absence or presence of different (R1, R2, R3) IgGs, and HMGB1 release was assayed by Western blotting. C, Epitope mapping by dot blot. Note that all rabbit IgGs capable of protecting against lethal endotoxemia cross-reacted with P8 peptide.
Epitope mapping of SAA-neutralizing antibodies. To test the possibility that antibodies or peptides antagonists targeting different SAA domains may divergently affect the outcomes of LSI, SAA-specific antibodies were generated, and the epitopes of these polyclonal IgGs determined using a peptide library (18-mer offset by 6) spanning the entire SAA protein (FIG. 5A). […] Following repetitive immunizations, the titers of anti-SAA IgGs were dramatically elevated in most rabbits (e.g., R1 and R3).

In the case of “IL-6: inflammatory mediator, sepsis surrogate marker”, the “induction of HMGB1 release in vitro” value in the assay on HMGB1 release is “unable to induce HMGB1 release”. For “EGF: cytoprotective peptide (NSDSECPLSHDGYCLHDGVCMYIEALDKYACNCVVGYIGERCQYRDLKWWELR; Epidermal growth factor; UniProt P01133 971-1023, looked up)”, the “induction of HMGB1 release in vitro” value in the assay with HMGB1 release was “unable to induce HMGB1 release”. On to “REANYIGSDKYFHARGNY (listed as Homo sapiens) [Clone P8, SAA peptide (18-mer) corresponding to residues 25-42]”, for which, in the assay on SAA, the “effect of pre-incubation with peptide on anti-SAA-IgG-mediated inhibition of SAA-induced HMGB1 release” value is given as “impaired” and the “inhibition of SAA-induced HMGB1 release” value is recorded as “dose-dependently inhibited”. “IL-8: inflammatory mediator, sepsis surrogate marker”: in the assay with HMGB1 release, the “induction of HMGB1 release in vitro” value is listed as “unable to induce HMGB1 release”.

For “RSFFSFLGEAFDGARDMW (listed as Homo sapiens) [Clone P4, SAA peptide corresponding to residues 1-18]”, in the assay with SAA, the “inhibition of SAA-induced HMGB1 release” value was “dose-dependently inhibited; also recorded: inhibited SAA-induced HMGB1 release”.
